pIC50: −log10 of the molar value.
What was measured:
D(2) dopamine receptor = D(2) dopamine receptor (Rattus norvegicus, UniProt P61169); assay: The affinity for the Dopamine receptor D2 was assessed by the inhibition of [3H]-spiperone binding in rat striatal membranes in vitro.; format: cell membranes, Membrane
Rattus norvegicus [1] = assay: Hyperactivity by regression analysis, through intraperitoneal route of administration; format: functional; details: ip
Rattus norvegicus [2] = assay: Stereotypies was scored by regression analysis, through intraperitoneal route of administration; format: functional; details: ip

D(2) dopamine receptor, sequence (P61169 whole entry): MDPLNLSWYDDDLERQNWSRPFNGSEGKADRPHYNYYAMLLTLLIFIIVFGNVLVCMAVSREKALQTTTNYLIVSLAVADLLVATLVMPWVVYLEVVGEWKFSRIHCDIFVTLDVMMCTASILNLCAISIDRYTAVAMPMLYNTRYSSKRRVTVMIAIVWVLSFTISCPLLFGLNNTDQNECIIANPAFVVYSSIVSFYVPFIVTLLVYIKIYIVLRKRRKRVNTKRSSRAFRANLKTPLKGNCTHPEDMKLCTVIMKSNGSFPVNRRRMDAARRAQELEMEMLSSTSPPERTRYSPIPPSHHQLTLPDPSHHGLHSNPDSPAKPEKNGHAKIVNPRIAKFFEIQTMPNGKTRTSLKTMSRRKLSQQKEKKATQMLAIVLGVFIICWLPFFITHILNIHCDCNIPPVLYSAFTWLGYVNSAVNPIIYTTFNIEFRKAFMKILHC

pIC50 (D(2) dopamine receptor) | SMILES | ED50 (Rattus norvegicus [1]) | ED50 (Rattus norvegicus [2])
6.84 | CCN1CCC[C@@H]1CNC(=O)c1cc(Br)cc(OC)c1OC | > 20 µmol/kg | > 20 µmol/kg
8.92 | CCN1CCC[C@H]1CNC(=O)c1cc(Br)cc(OC)c1OC | 0.002 µmol/kg | 0.14 µmol/kg
5.09 | CCN1CCCC1CNC(=O)c1cc(Br)cc(OC)c1O (stereo unspecified) | – | –
7.36 | CCN1CCCC1CNC(=O)c1cc(Br)c(OC)cc1OC (stereo unspecified) | 3.2 µmol/kg | 10.7 µmol/kg
7.34 | CCN1CCCC1CNC(=O)c1cc(Br)ccc1OC (stereo unspecified) | 3 µmol/kg | 6.7 µmol/kg
8.00 | CCN1CCCC1CNC(=O)c1cc(Br)cc(O)c1OC (stereo unspecified) | 1.2 µmol/kg | 2.1 µmol/kg

Further lines, the compound ahead of its results:

SMILES | pIC50 (D(2) dopamine receptor) | ED50 (Rattus norvegicus [1]) | ED50 (Rattus norvegicus [2])
CCN1CCC[C@H]1CNC(=O)c1c(OC)ccc(Br)c1O | – | 0.054 µmol/kg | 0.32 µmol/kg
CCN1CCC[C@H]1CNC(=O)c1cc(Br)cc2c1OCC2 | – | 2 µmol/kg | 4.7 µmol/kg
CCN1CCC[C@H]1CNC(=O)c1cc(Br)cc2c1OCCO2 | 7.34 | 3.8 µmol/kg | 12.8 µmol/kg
COc1cc(Br)cc(C(=O)NC2CCN(Cc3ccccc3)CC2)c1OC | 8.30 | 0.28 µmol/kg | 0.24 µmol/kg
COc1cccc(C(=O)NC2CC3CCC(C2)N3Cc2ccccc2)c1OC (stereo unspecified) | 8.77 | 0.016 µmol/kg | 0.043 µmol/kg
CCN1CCCC1CNC(=O)c1cccc(OC)c1OC (stereo unspecified) | 7.28 | ~10 µmol/kg | ~10 µmol/kg
CCN1CCC[C@H]1CNC(=O)c1c(O)c(Br)cc(OC)c1OC | – | 0.009 µmol/kg | 0.049 µmol/kg
CCN1CCC[C@H]1CNC(=O)c1c(O)c(Cl)cc(Cl)c1OC [RACLOPRIDE] | – | 0.13 µmol/kg | 1.8 µmol/kg
